Test results reported in US7737127B2, “2-propynyl adenosine analogs having A2A agonist activity and compositions thereof” (University of Virginia Patent Foundation, priority 2001, dated 2010).

What was measured:
human neutrophils = assay: Human neutrophil oxidative activity, luminol-enhanced chemiluminescence; type: cell-based; conditions: for EC50: Homo sapiens, Neutrophil, read-out: PMN oxid (-log EC50) (converted); for EC50 / PMN oxid (-log EC50): human neutrophil experiment w/o Rolipram; for PMN oxid + roli (-log EC50): human neutrophil experiment w/Rolipram
In short: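 Purified human neutrophils (5–10×10^5/ml) pre-incubated 30 min at 37 °C with the A2A agonist, ± rolipram and ± TNF-α (1 U/ml), then stimulated with fMLP (1 μM final). Peak luminol-enhanced chemiluminescence expressed as percent of no-agonist control. EC50 from three donors.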

[1] = biological target: recombinant human A2A receptors (Homo sapiens, UniProt P29274); assay: Radioligand competition binding to recombinant human A2A receptors in Sf9 cell membranes; conditions: A2A ± SEM, Ki from competition binding, Sf9 cell membranes
Experimental: (§1) Sf9 cells were cultured in Grace's medium supplemented with 10% fetal bovine serum, 2.5 μg/ml amphotericin B and 50 μg/ml gentamycin in an atmosphere of 50% N2/50% O2. […] Infected cells were harvested 3 days post-infection and washed twice in insect PBS (PBS pH 6.3). Cells were then resuspended in lysis buffer (20 mM HEPES pH 7.5, 150 mM NaCl, 3 mM MgCl2, 1 mM β-mercaptoethanol (BME), 5 μg/mL leupeptin, 5 μg/mL pepstatin A, 1 μg/mL aprotinin, and 0.1 mM PMSF) and snap frozen for storage at −80° C. Cells were thawed on ice, brought to 30 mL total volume in lysis buffer, and burst by N2 cavitation (600 psi for 20 minutes). A low-speed centrifugation was performed to remove any unlysed cells (1000×g for 10 minutes), followed by a high-speed centrifugation (17,000×g for 30 minutes). The pellet from the final centrifugation was homogenized in buffer containing 20 mM HEPES pH 8, 100 mM NaCl, 1% glycerol, 2 μg/mL leupeptin, 2 μg/mL pepstatin A, 2 μg/mL Aprotinin, 0.1 mM PMSF, and 10 μM GDP using a small glass homogenizer followed by passage through a 26 gauge needle. Membranes were aliquoted, snap frozen in liquid N2, and stored at −80° C.
(§2) Binding experiments were performed in triplicate with 5 μg (A2A) or 25 μg (A1 and A3) membrane protein in a total volume of 0.1 mL HE buffer (20 mM HEPES and 1 mM EDTA) with 1 U/mL adenosine deaminase and 5 mM MgCl2 with or without 50 μM GTPγS. Membranes were incubated with radioligands at room temperature for three hours (for agonists) or two hours (for antagonists) in Millipore Multiscreene® 96-well GF/C filter plates and assays were terminated by rapid filtration on a cell harvester (Brandel, Gaithersburg, Md.) followed by 4×150 μl washes over 30 seconds with ice cold 10 mM Tris-HCl, pH 7.4, 10 mM MgCl2.

A3 AR = biological target: T1, A3 AR (Homo sapiens, UniProt P0DMS8); assay: Radioligand competition binding (125I-ABA) to human A3 AR in HEK 293 cell membranes; conditions: for Ki: A3 ± SEM, Ki from competition binding, 125I-ABA, HEK 293 cell membranes; for A3/A2A: selectivity ratio A3 over A2A
T1 sequence (P0DMS8 1-318): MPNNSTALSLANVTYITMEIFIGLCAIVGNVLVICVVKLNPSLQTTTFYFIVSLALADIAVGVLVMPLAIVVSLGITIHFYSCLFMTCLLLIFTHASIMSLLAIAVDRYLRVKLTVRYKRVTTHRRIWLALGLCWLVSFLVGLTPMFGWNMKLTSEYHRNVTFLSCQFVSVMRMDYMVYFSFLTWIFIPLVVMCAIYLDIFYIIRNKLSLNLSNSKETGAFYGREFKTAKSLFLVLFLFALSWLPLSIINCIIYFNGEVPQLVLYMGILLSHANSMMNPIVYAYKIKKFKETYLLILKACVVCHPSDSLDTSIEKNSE

human A1 AR = biological target: T2, human A1 AR (Homo sapiens, UniProt P30542); assay: Radioligand competition binding (125I-ABA) to human A1 AR in CHO K1 cell membranes; conditions: for Ki: A1 ± SEM, Ki from competition binding, 125I-ABA, CHO K1 cell membranes; for A1/A2A: selectivity ratio A1 over A2A
T2 sequence (P30542 1-326): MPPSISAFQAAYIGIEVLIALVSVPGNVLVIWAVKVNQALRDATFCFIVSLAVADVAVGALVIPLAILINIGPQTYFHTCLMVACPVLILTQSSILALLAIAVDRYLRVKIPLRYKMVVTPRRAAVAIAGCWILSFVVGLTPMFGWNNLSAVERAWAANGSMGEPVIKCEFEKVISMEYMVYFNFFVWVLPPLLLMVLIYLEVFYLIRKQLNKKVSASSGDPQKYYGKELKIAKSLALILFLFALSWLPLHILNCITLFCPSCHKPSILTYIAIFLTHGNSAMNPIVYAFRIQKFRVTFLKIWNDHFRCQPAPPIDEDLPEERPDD
Experimental: as §1, §2

[2] = test system: liver ischemia/reperfusion injury; assay: Liver ischemia/reperfusion injury, serum GPT; type: in vivo, Mice; conditions: administered 6 hours prior to I/R injury; serum GPT 24 hours later; vs. a control compound and ATL146e; FIG. 17
Experimental: Mice were anesthetized by intraperitoneal injection of ketamine 100 mg/kg and xylazine 10 mg/kg. Glycopyrrolate (Robinul-V™) 0.05 mg/kg was delivered subcutaneously before the operation. The ambient temperature was controlled in the range of 24° C. to 26° C. Mice were placed on a 37° C. heat pad with their core temperature monitored by a TH-8 Thermalert™ Monitoring Thermometer (Physitemp) and maintained at 36-37° C. by a TCAT-1A Temperature Control and Alarm Unit (Physitemp) during the entire procedure. After midline laparotomy, a microaneurysm clip was applied to the hepatic triad above the bifurcation to clamp the flow of the hepatic artery, portal vein, and bile duct. […]
Serum GPT (ALT) levels were measured using a Transaminase kit (505, Sigma). Briefly, 20 μL serum sample was mixed with 100 (L pre-heated Alanine-α-KG substrate and incubated in a 37° C. water bath for 30 minutes. Then we added 100 (L Sigma Color Reagent to the reaction and left it at room temperature for 20 minutes. We stopped the reaction with 1.0 ml 0.4N sodium hydroxide solution. Absorbance of each sample at 505 nm was measured and converted into SF unit/ml.
The test compounds were administered 6 hours prior to I/R injury. Tissue protection is measured by amount of Serum GPT present in the in a serum sample 24 hours later, with smaller GPT concentrations indicating better liver function.

Sequence of recombinant human A2A receptors (P29274 whole entry): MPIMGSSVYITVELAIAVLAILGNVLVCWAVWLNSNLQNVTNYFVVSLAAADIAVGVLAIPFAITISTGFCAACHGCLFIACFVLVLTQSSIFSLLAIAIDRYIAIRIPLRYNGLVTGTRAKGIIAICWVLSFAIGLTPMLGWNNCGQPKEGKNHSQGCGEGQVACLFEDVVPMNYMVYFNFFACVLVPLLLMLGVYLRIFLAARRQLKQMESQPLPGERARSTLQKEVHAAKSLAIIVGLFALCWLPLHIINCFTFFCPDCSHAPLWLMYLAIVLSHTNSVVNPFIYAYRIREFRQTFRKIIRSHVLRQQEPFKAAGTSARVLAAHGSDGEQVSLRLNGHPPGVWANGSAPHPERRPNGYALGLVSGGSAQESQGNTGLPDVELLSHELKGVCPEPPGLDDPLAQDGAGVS

For `CCNC(=O)[C@H]1O[C@@H](n2cnc3c(N)nc(C#C[C@]4(O)CCC[C@@H](C)C4)nc32)C(O)C1O` (stereo in doubt) [JR-3223, 5-[6-Amino-2-(1-hydroxy-3-methylcyclohexylethynyl)purin-9-yl]-3,4-dihydroxytetrahydrofuran-2-carboxylic acid ethylamide], the EC50 (human neutrophils) was 0.339 nM, the “PMN oxid + roli (-log EC50)” value (human neutrophils) was 10.15 and the Ki [1] was 0.92 ± 0.2 nM. For the same compound, the Ki (A3 AR) was 0.7 ± 0.02 nM, the A3/A2A (A3 AR) was 0.8 and the Ki (human A1 AR) was 4.8 ± 0.3 nM. For the same compound, the A1/A2A (human A1 AR) was 5.2 and the “duration of action for liver tissue protection (Serum GPT)” value [2] was “longer duration of action”.

In the case of `CCNC(=O)[C@H]1O[C@@H](n2cnc3c(N)nc(C#CCC4CCC(CC)CC4)nc32)C(O)C1O` (stereo in doubt) [JR-3087, 5-{6-Amino-2-[3-(4-ethyl-cyclohexyl)-prop-1-ynyl]-purin-9-yl}-3,4-dihydroxytetrahydrofuran-2-carboxylic acid ethylamide], the EC50 (human neutrophils) is reported as 46.8 nM, the “PMN oxid + roli (-log EC50)” value (human neutrophils) is reported as 8.51 and the Ki [1] is reported as 2.2 ± 0.2 nM. The Ki (A3 AR) was 17.8 ± 5.5 nM, the A3/A2A (A3 AR) was 8.1 and the Ki (human A1 AR) was 20.3 ± 4.5 nM. The A1/A2A (human A1 AR) was 9.2.

`CCNC(=O)[C@H]1O[C@@H](n2cnc3c(N)nc(C#CCN4CCC(C(=O)OCC)CC4)nc32)C(O)C1O` (stereo in doubt) [JR-3279, 1-{3-[6-Amino-9-(5-ethylcarbamoyl-3,4-dihydroxytetrahydrofuran-2-yl)-9H-purin-2-yl]-prop-2-ynyl}-piperidine-4-carboxylic acid ethyl ester] showed an EC50 (human neutrophils) of 13.8 nM, a Ki [1] of 3.82 ± 0.95 nM and an A3/A2A (A3 AR) of 0.0. For the same compound, the Ki (human A1 AR) was 14.4 nM and the A1/A2A (human A1 AR) was 3.8.

With `CCNC(=O)[C@H]1O[C@@H](n2cnc3c(N)nc(C#CCC4CCC(CO)CC4)nc32)C(O)C1O` (stereo in doubt) [ATL-2037, 5-{6-Amino-2-[3-(4-hydroxymethyl-cyclohexyl)-prop-1-ynyl]-purin-9-yl}-3,4-dihydroxytetrahydrofuran-2-carboxylic acid ethylamide] the EC50 (human neutrophils) was 32.4 nM, the “PMN oxid + roli (-log EC50)” value (human neutrophils) was 8.7 and the Ki [1] was 1.5 ± 0.01 nM. For the same compound, the Ki (A3 AR) was 76 ± 6 nM, the A3/A2A (A3 AR) was 50.3 and the Ki (human A1 AR) was 19 ± 1 nM. The A1/A2A (human A1 AR) was 12.6.

`CCNC(=O)[C@H]1O[C@@H](n2cnc3c(N)nc(C#CC4(O)CCCCC4C)nc32)C(O)C1O` (single isomer, unassigned) [JR-3181A, 5-[6-Amino-2-(1-hydroxy-2-methyl-cyclohexylethynyl)-purin-9-yl]-3,4-dihydroxytetrahydrofuran-2-carboxylic acid ethylamide] was tested, and the “PMN oxid + roli (-log EC50)” value (human neutrophils) was 8.77, the “PMN oxid (-log EC50)” value (human neutrophils) was 7.73 and the Ki [1] was 1.2 ± 0.15 nM. For the same compound, the Ki (A3 AR) was 69.7 ± 43 nM, the A3/A2A (A3 AR) was 59.1 and the Ki (human A1 AR) was 44.9 ± 17.2 nM. It also gave an A1/A2A (human A1 AR) of 38.1.

With `CCNC(=O)[C@H]1O[C@@H](n2cnc3c(N)nc(C#CCC4CCC(CN(C)C)CC4)nc32)C(O)C1O` (stereo in doubt) [JR-3023, 5-{6-Amino-2-[3-(4-dimethylaminomethyl-cyclohexyl)-prop-1-ynyl]-purin-9-yl}-3,4-dihydroxytetrahydrofuran-2-carboxylic acid ethylamide] the EC50 (human neutrophils) was 42.7 nM, the “PMN oxid + roli (-log EC50)” value (human neutrophils) was 8.66 and the Ki [1] was 3.8 ± 2 nM. It also gave a Ki (A3 AR) of 61 ± 6 nM, an A3/A2A (A3 AR) of 16.3 and a Ki (human A1 AR) of 14 ± 0.8 nM. It also gave an A1/A2A (human A1 AR) of 3.7.

`CCNC(=O)[C@H]1O[C@@H](n2cnc3c(N)nc(C#CC4(O)CCCCC4C)nc32)C(O)C1O` (single isomer, unassigned) [JR-3177A, 5-[6-Amino-2-(1-hydroxy-2-methyl-cyclohexylethynyl)-purin-9-yl]-3,4-dihydroxytetrahydrofuran-2-carboxylic acid ethylamide] was tested, and the “PMN oxid + roli (-log EC50)” value (human neutrophils) was 9.03, the “PMN oxid (-log EC50)” value (human neutrophils) was 7.53 and the Ki [1] was 1.2 ± 0.35 nM. The Ki (A3 AR) was 6.7 ± 0.3 nM, the A3/A2A (A3 AR) was 5.5 and the Ki (human A1 AR) was 8.7 ± 0.07 nM. For the same compound, the A1/A2A (human A1 AR) was 7.1.

`CCNC(=O)[C@H]1O[C@@H](n2cnc3c(N)nc(C#CC[C@H]4CC[C@H](COC(=O)OC)CC4)nc32)C(O)C1O` (stereo partly drawn) [ATL214, N-Ethyl 2-{3-[trans-4-(methoxycarbonyloxymethyl)-cyclohexyl]-1-propyn-1-yl}adenosine-5′-uronamide] was tested, and the EC50 (human neutrophils) was 2 nM, the Ki [1] was 0.8 nM and the Ki (A3 AR) was 100 nM. For the same compound, the A3/A2A (A3 AR) was 125, the Ki (human A1 AR) was 100 nM and the A1/A2A (human A1 AR) was 125.

In the case of `CCNC(=O)[C@H]1O[C@@H](n2cnc3c(N)nc(C#CC(O)(C4CCCCC4)C4CCCCC4)nc32)C(O)C1O` (stereo in doubt) [JR-3139, 5-[6-Amino-2-(3,3-dicyclohexyl-3-hydroxy-prop-1-ynyl)-purin-9-yl]-3,4-dihydroxytetrahydrofuran-2-carboxylic acid ethylamide], the EC50 (human neutrophils) is reported as 4070 nM, the “PMN oxid + roli (-log EC50)” value (human neutrophils) is reported as 6.75 and the Ki [1] is reported as 166 ± 42 nM. For the same compound, the Ki (A3 AR) was 83.7 ± 30 nM, the A3/A2A (A3 AR) was 0.5 and the Ki (human A1 AR) was 801 ± 99 nM. It also gave an A1/A2A (human A1 AR) of 4.8.
